Assay results taken from patent publication US8420614B2, “Compositions and methods for inhibiting or reversing fibrotic disorders” (Albany Medical College, priority 2007, dated 2013).

How the values were obtained:
Format in all cases: cell-based, human
SMCA in NADF = assay: SMCA expression (western blot, immunostaining), NADF; settings: TGF-β1 10 ng/ml
Protocol: (§1) NADF and HTSF lysates were analyzed for protein expression by western blotting with the following primary antibodies at a concentration of 1:1000: cyclin D1, (BD-Biosciences; DCS-6, San Jose, Calif.), cyclin A, (Santa Cruz Biotech.; H 432, Santa Cruz, Calif.), p21^cip1 (BD-Biosciences; sx-118, San Jose, Calif.), p15^ink4b (Cell Signaling, Danvers, Mass.), Hic-5 (BD Transduction, Franklin Lakes, N.J.), RhoGDI (Santa Cruz Biotech, Santa Cruz, Calif.), H2A (Cell Signaling, Danvers, Mass.) and ERK½ (Santa Cruz Biotech, Santa Cruz, Calif.), Vinculin (Sigma Aldrich), SMCA (Sigma Aldrich), FN (Neomarkers), Collagen type I (Sigma Aldrich), Paxillin (Sigma Aldrich). Western blots were developed using SuperSignal chemiluminescent substrate (Pierce, Rockford, Ill.) and quantitated with a Fluor-S MultiImager and Quantity-One software (Bio-Rad, Hercules, Calif.). Membranes were stripped using Restore Stripping (Pierce, Rockford, Ill.) and reprobed (no more than once) with other antibodies.
(§2) Cells were stained as previously described (Dabiri et al., 2006), with slight modification. Control or modified cells were cultured at 30% confluency in complete medium for 18 hours, then washed with Dulbecco's phosphate-buffered saline and serum-free medium was added, followed by 10 ng/ml of TGF-β1 or 20 ng/ml of anti-TGF-β1 (R&D Systems, Minneapolis, Minn.) where specified. […]

Hic-5 = assay: Western blot of Hic-5 expression, NADF; settings: TGF-β1 10 ng/ml
Protocol: as §1
Either NADF (5×10^3 cells) or HTSF (5×10^3 cells) were cultured in DMEM plus serum for 24 hrs with either TGF-β1 (10 ng/ml) or anti-TGF-β1 (20 μg/ml) where indicated. […] Protein expression was analyzed by western blot, as described above. […]

NADF [1] = assay: BrdU incorporation, NADF; settings: 24 h BrdU pulse; TGF-β1 10 ng/ml
Protocol: HTSF (5×10^3 cells) or NADF (5×10^3 cells) were plated in serum free media (Dulbecco's […] 1:1, Hams F12 1:1, transferrin 5 μg/ml, insulin 5×10^−7M, ascorbate 0.2 mM, glutamine 1:100, penicillin-streptomycin 1:100) for 18 hrs in Labtek™ chambers (Nalge Nunc International, Naperville, Ill.) at 37° C. Cells were washed three times with Dulbecco's phosphate buffered saline (DPBS) (Gibco Invitrogen International, Carlsbad, Calif.) and to each well DMEM containing serum was added, 10 μg/ml of BrdU (Biodesign International, Saco, Me.), with or without the addition of 10 ng/ml of TGFβ1. In some wells anti-TGF-β (20 μg/ml) was also added as indicated. Cells were incubated (24 hrs), washed with DPBS, fixed with 3.7% formaldehyde (Sigma Chemical Co., St. Louis, Mo.) in DPBS (10 min), permeabilized with 0.5% Triton X-100 (5 min) (Sigma Chemical Co., St. Louis, Mo.), blocked (1 hr) with 2% bovine serum albumin (Sigma Chemical Co., St. Louis, Mo.) in PBS then DNAase (Promega, Madison, Wis.) treated for 30 min. […] Coverslips were mounted in Gelmount (Biomedia Corp., Biomedia Corp., Foster City, Calif.) and slides were analyzed on an Olympus BX60 microscope using 10× objective. […] The percent positive BrdU incorporation was determined by dividing the number of nuclei labeled with both BrdU (green) and Hoescht (blue) by the total number of nuclei (blue)×100.

HTSF [2] = assay: Floating collagen lattice contraction, HTSF; settings: TGF-β1 10 ng/ml added to Hic-5 siRNA treated HTSF
Protocol: (§3) Before preparing the gels, 5 ml of BSA (Sigma) solution (0.1% BSA in PBS, filter sterilized) was pipetted into each well of a six-well plate, incubated at 37° C. for 1 hour. 1.4 ml of bovine dermal collagen Vitrogen (Cohesion, Palo Alto, Calif.) was mixed with 0.4 ml of 5×DMEM in a 15 ml centrifuge tube cooled on ice. The pH was adjusted to a range of 7.2-7.5, using a sterile solution of 1N NaOH. The control and modified cells were trypsinized from a confluent tissue culture plate and 0.2 ml of the cell suspension (containing 5×10^5 cells) was added to the collagen solution, gently mixed and poured into a well of the six-well plate. Collagen lattices were allowed to gel for 60 minutes in a 5% CO2 atmosphere at 37° C. After 60 minutes, the collagen lattices were detached from the surface of the well by rimming the lattice with a sterile spatula and gently swirling the six-well plate. 2 ml of serum-free medium was added to each well. Plates were incubated in a 5% CO2 atmosphere at 37° C. To measure contraction, the tissue culture dishes were periodically placed on top of a transparent metric ruler on an opaque background, and the diameters of the lattices were recorded.

SMCA in HTSF = assay: SMCA expression (western blot, immunostaining), HTSF; settings: TGF-β1 10 ng/ml, 5 days
Protocol: as §1, §2

[3] = test system: supermature focal adhesions in NADF; assay: Focal adhesion measurements, NADF; settings: TGF-β1 10 ng/ml for 5 days
Protocol: Cells were stained as previously described (Dabiri et al., 2006), with slight modification. Control or modified cells were cultured at 30% confluency in complete medium for 18 hours, then washed with Dulbecco's phosphate-buffered saline and serum-free medium was added, followed by 10 ng/ml of TGF-β1 or 20 ng/ml of anti-TGF-β1 (R&D Systems, Minneapolis, Minn.) where specified. Cells were allowed to incubate for 5 days. On the fifth day, cells were washed fixed, permeabilized, and blocked for 1 hour. Samples were then incubated sequentially with mAb against vinculin (1:400) (Sigma Chemical Co., St Louis, Mo.), and then with a mixture of goat anti-mouse Alexa Fluor 488 (1:1000) and TRITC-conjugated phalloidin (1:100). […] Images were captured with attached Cooke Sensicam digital camera and deconvolved using Slidebook 3.0.10.3 software (FFTW licensed from Massachusetts Institute of Technology, Cambridge, Mass.).
Focal adhesion measurements were performed as described previously (Dabiri et al., 2006). In brief, cells (n=20) were chosen that were not in contact with any other cell and were well spread. Images were observed using Olympus BX60 microscope equipped with an immersion oil objective (×60/1.25, phase) and captured as described above. Vinculin staining was measured for area (μm^2) of focal adhesion using Image Pro-Plus version 4.5.1.26 (Media Cybermatic, Silver Spring, Md.). […]

[4] = test system: cyclin A, cyclin D1, p21^cip1, p15^ink4b in NADF; assay: Western blot of cell cycle proteins, NADF
Protocol: as §1

[5] = test system: collagen type I and FN in NADF; assay: Western blot of ECM proteins, NADF; settings: TGF-β1 10 ng/ml, 5 days
Protocol: as §1

HTSF [6] = assay: CyQUANT cell growth, HTSF; settings: serum-containing media; anti-TGF-β 20 μg/ml or TGF-β1 10 ng/ml
Protocol: (§4) All cells used in these studies were cultured (37° C., 5% CO2.) in serum-containing media which consisted of Dulbecco's modification of Eagle's Minimum Essential Medium, 10% fetal bovine serum and 1% penicillin-streptomycin (all of which were obtained from Gibco Invitrogen Corporation, Carlsbad, Calif.). NADF were purchased from Clonetics-Cambrex BioScience (Walkersville, Md.). HTSF were isolated from biopsies taken from hypertrophic scars resected therapeutically from pediatric patients at Shriner's Burn Hospital and Massachusetts General Hospital, (Boston, Mass.). Tissue was processed according to the protocol of Ronnov-Jessen and Peterson (1993) and as described in (Dabiri et al., 2006). All tissues were acquired anonymously under protocols approved by the relevant medical and ethical committees of the Shriner's Burn Center in accordance with the Declaration of Helsinki Principles and patients gave their written, informed consent.
(§5) Cell growth was measured using CyQUANT® Cell Proliferation Assay Kit (C-7026, Invitrogen, Carlsbad, Calif.). […] Plates were read on Spectra Max Gemini-EM (Molecular Devices, Sunnyvale, Calif.) with an excitation and emission spectrum 480 nm and 520 nm, respectively.

NADF [7] = assay: Floating collagen lattice contraction, NADF; settings: TGF-β1 10 ng/ml; floating collagen lattice three days
Protocol: as §3

NADF [8] = assay: CyQUANT cell growth, NADF; settings: serum-containing media; anti-TGF-β 20 μg/ml or TGF-β1 10 ng/ml
Protocol: as §4, §5

In the case of “TGF-β1: recombinant, active TGF-β1 added exogenously (R&D Systems)”, the “increase in percent positive SMCA cells in NADF” value (SMCA in NADF; 5 days) is reported as 7 fold, the “expression of SMCA and Hic-5 in NADF” value (SMCA in NADF; serum free media five days) is reported as “both SMCA and Hic-5 were upregulated” and the “expression of Hic-5 in NADF” value (Hic-5; 24 h) is reported as “significantly increased the expression of Hic-5”. The “expression of Hic-5 in the nucleus in NADF” value (Hic-5; subcellular fractionation) was “significantly increased the expression of Hic-5 in the nucleus”, the “percent BrdU positive nuclei in NADF” value (NADF [1]) was “statistically significant decrease in the percent positive nuclei” and the “ability of Hic-5 knocked-down HTSF to contract collagen” value (HTSF [2]) was “fully rescued the ability of HTSF to contract collagen”. For the same substance, the “increase in the percentage of positive SMCA cells in HTSF in which Hic-5 was genetically ablated” value (SMCA in HTSF) was 5 fold, the “increase in the percentage of focal adhesions greater than 6 μm^2 in NADF” value [3] was about 10 fold and the “cyclin A and cyclin D1 levels in NADF” value ([4]; 24 h, TGF-β1 10 ng/ml) was “decreased cyclin A and cyclin D1 levels”. For the same substance, the “increase in p15^ink4b level in NADF compared to NADF without TGF-β1” value ([4]; 24 h, TGF-β1 10 ng/ml) was 5.25 fold, the “increase in p21^cip1 level in NADF compared to NADF without TGF-β1” value ([4]; 24 h, TGF-β1 10 ng/ml) was 2.5 fold and the “increase in expression of p15^ink4b in NADF” value ([4]; siRNA experiment, TGF-β1 10 ng/ml for 24 hrs, unaffected by knockdown of Hic-5) was 4 fold. The “expression of collagen and FN in NADF” value [5] was “significantly increased the expression of these ECM proteins”, the “HTSF proliferation (increase in cell number by day 3)” value (HTSF [6]) was “did not significantly alter the growth” and the “decrease in collagen diameter by NADF” value (NADF [7]) was 3 fold. The “NADF proliferation (increase in cell number by day 3)” value (NADF [8]) was “statistically significant decrease in proliferation”.
